PMC6222820, “Synthesis of New Triarylpyrazole Derivatives Possessing Terminal Sulfonamide Moiety and Their Inhibitory Effects on PGE2 and Nitric Oxide Productions in Lipopolysaccharide-Induced RAW 264.7 Macrophages” (Molecules : A Journal of Synthetic Chemistry and Natural …, 2018)
Read-outs that look alike come from different tables or passages of the source.

Legend:
[1] = tested on: LPS-induced RAW 264.7 macrophages; test: Nitric oxide (NO) production inhibition in LPS-induced RAW 264.7 macrophages (nitrite determination); format: cell-based; conditions: for inhibition at 1 µM: RAW264.7, 1 µM; for inhibition at 5 µM: RAW264.7, 5 µM; for inhibition at 10 µM: RAW264.7, 10 µM
Protocol: The ability of a certain molecule to inhibit the production of inflammatory mediator(s) is one of successful approach to treatment both chronic and acute inflammation.
(§1) Cell culture and sample treatment were performed as reported in the literature. The 3-(4,5-dimethylthiazol-2-yl)-2,5-diphenyltetrazolium bromide (MTT) assay for cell viability followed the procedure previously described in the literature. Nitrite determination was carried as described in the literature, and the PGE2 assay was carried as previously described.

[2] = MTT assay for cell viability / cytotoxicity; format: cell-based; conditions: mouse, RAW 264.7 macrophages, means ± SD of three independent experiments
Protocol: In addition to NO inhibition, the cytotoxic activity of compounds 1a–i, 2a–i, 3a–h, and 4a–h in RAW 264.7 macrophages were measured using the 3-(4,5-dimethylthiazol-2-yl)-2,5-diphenyltetrazolium bromide (MTT) assay to check whether the effects on the production of NO was caused by nonspecific cytotoxicity.
as §1

[3] = Mus musculus, LPS-induced RAW 264.7 macrophages
[4] = Mus musculus, RAW264.7, nitric oxide production, means ± SD of three independent experiments, read-out: NO (IC50)

Row | Compound | melting point [°C] | IC50 [1, 4] [µM] | IC50 ([1]; Mus musculus, RAW264.7, read-out: NO (IC50)) [µM] | inhibition at 1 µM [1, 3] [%] | inhibition at 5 µM [1, 3] [%] | inhibition at 10 µM [1, 3] [%] | IC50 [2] [µM] | Nitric Oxide % Inhibition ([1]; 10 µM, LPS-induced RAW 264.7 macrophages) [%] | inhibition at 40 µM ([1]; Mus musculus, RAW264.7, read-out: Nitric Oxide % Inhibition) [%]
1 | Cc1ccc(S(=O)(=O)NCCCNc2cc(-c3cn(-c4ccccc4)nc3-c3cccc(O)c3)ccn2)cc1 [Compound 4e, N-(3-((4-(3-(3-Hydroxyphenyl)-1-phenyl-1H-pyrazol-4-yl)pyridin-2-yl)amino)propyl)-4-methylbenzenesulfonamide] | 158 to 160 | 8.82 ± 0.32 |  | 0.69 ± 0.01 | 18.6 ± 0.98 | 59.7 ± 0.7 | 23 ± 0.63 |  | 
2 | O=S(=O)(NCCNc1cc(-c2cn(-c3ccccc3)nc2-c2cccc(O)c2)ccn1)c1ccc(Br)cc1 [Compound 3b, 4-Bromo-N-(2-((4-(3-(3-hydroxyphenyl)-1-phenyl-1H-pyrazol-4-yl)pyridin-2-yl)amino)ethyl)benzenesulfonamide] | 178 to 180 | 10.6 ± 0.51 |  | 15.8 ± 0.16 | 24.4 ± 0.52 | 48.7 ± 1.74 | 24.3 ± 0.41 |  | 
3 | Cc1ccc(S(=O)(=O)NCCNc2cc(-c3cn(-c4ccccc4)nc3-c3cccc(O)c3)ccn2)cc1 [Compound 3e, N-(2-((4-(3-(3-Hydroxyphenyl)-1-phenyl-1H-pyrazol-4-yl)pyridin-2-yl)amino)ethyl)-4-methylbenzenesulfonamide] | 114 to 116 | 16.1 ± 0.72 |  | 7.15 ± 0.04 | 12.4 ± 0.72 | 31.4 ± 0.33 | 32.5 ± 0.75 |  | 
4 | COc1cccc(-c2nn(-c3ccccc3)cc2-c2ccnc(NCCCNS(=O)(=O)c3cccc4ccccc34)c2)c1 [Compound 2i, N-(3-((4-(3-(3-Methoxyphenyl)-1-phenyl-1H-pyrazol-4-yl)pyridin-2-yl)amino)propyl)naphthalene-1-sulfonamide] | 134 to 136 |  |  |  |  |  |  |  | 
5 | O=S(=O)(NCCNc1cc(-c2cn(-c3ccccc3)nc2-c2cccc(O)c2)ccn1)c1ccc(C(F)(F)F)cc1 [Compound 3f, N-(2-((4-(3-(3-Hydroxyphenyl)-1-phenyl-1H-pyrazol-4-yl)pyridin-2-yl)amino)ethyl)-4-(trifluoromethyl)benzenesulfonamide] |  | 22.2 ± 0.31 |  | 6.08 ± 0.07 | 15.2 ± 0.91 | 36.5 ± 0.59 |  |  | 
6 | O=S(=O)(NCCCNc1cc(-c2cn(-c3ccccc3)nc2-c2cccc(O)c2)ccn1)c1cccc(F)c1 [Compound 4g, 3-Fluoro-N-(3-((4-(3-(3-hydroxyphenyl)-1-phenyl-1H-pyrazol-4-yl)pyridin-2-yl)amino)propyl)benzenesulfonamide] | 120 to 122 | 8.24 ± 0.41 |  |  | 29.5 ± 0.86 | 51.1 ± 1.45 | 9.35 ± 0.32 |  | 
7 | COc1cccc(-c2nn(-c3ccccc3)cc2-c2ccnc(NCCNS(=O)(=O)c3cccc(F)c3)c2)c1 [Compound 1h, 3-Fluoro-N-(2-((4-(3-(3-methoxyphenyl)-1-phenyl-1H-pyrazol-4-yl)pyridin-2-yl)amino)ethyl)benzenesulfonamide] | 118 to 120 | 12.6 ± 0.29 |  | 11.12 ± 0.02 | 26.2 ± 0.99 | 41.2 ± 2.15 | 244.2 ± 2.23 |  | 
8 | O=S(=O)(NCCCNc1cc(-c2cn(-c3ccccc3)nc2-c2cccc(O)c2)ccn1)c1ccc(Br)cc1 [Compound 4b, 4-Bromo-N-(3-((4-(3-(3-hydroxyphenyl)-1-phenyl-1H-pyrazol-4-yl)pyridin-2-yl)amino)propyl)benzenesulfonamide] |  | 8.34 ± 0.11 |  | 8.19 ± 0.06 | 22.2 ± 0.72 | 63.9 | 19.5 ± 0.49 | 63.82 ± 2.14 | 
9 | O=S(=O)(NCCCNc1cc(-c2cn(-c3ccccc3)nc2-c2cccc(O)c2)ccn1)c1ccc(Cl)cc1 [Compound 4c, 4-Chloro-N-(3-((4-(3-(3-hydroxyphenyl)-1-phenyl-1H-pyrazol-4-yl)pyridin-2-yl)amino)propyl)benzenesulfonamide] | 166 to 168 | 13.2 ± 0.52 |  | 0.86 ± 0.09 | 22 ± 0.42 | 47 ± 1.34 | 18.8 ± 0.68 |  | 
10 | O=S(=O)(NCCNc1cc(-c2cn(-c3ccccc3)nc2-c2cccc(O)c2)ccn1)c1cccc2ccccc12 [Compound 3h, N-(2-((4-(3-(3-Hydroxyphenyl)-1-phenyl-1H-pyrazol-4-yl)pyridin-2-yl)amino)ethyl)naphthalene-1-sulfonamide] | 146 to 148 |  |  |  |  |  |  |  | 
11 | COc1cccc(-c2nn(-c3ccccc3)cc2-c2ccnc(NCCNS(=O)(=O)c3cccc4ccccc34)c2)c1 [Compound 1i, N-(2-((4-(3-(3-Methoxyphenyl)-1-phenyl-1H-pyrazol-4-yl)pyridin-2-yl)amino)ethyl)naphthalene-1-sulfonamide] | 178 to 180 |  |  |  |  |  |  |  | 
12 | CC(=N)NCCCC[C@H](N)C(=O)O [L-NIL, N^6-(1-Iminoethyl)-L-lysine, reference compound] |  |  | 29.32 ± 0.15 |  |  |  |  |  | 77.9 ± 4.25
13 | O=S(=O)(NCCCNc1cc(-c2cn(-c3ccccc3)nc2-c2cccc(O)c2)ccn1)c1ccc(C(F)(F)F)cc1 [Compound 4f, N-(3-((4-(3-(3-Hydroxyphenyl)-1-phenyl-1H-pyrazol-4-yl)pyridin-2-yl)amino)propyl)-4-(trifluoromethyl)benzenesulfonamide] |  | 9.45 ± 0.15 |  | 4.87 ± 0.14 | 18.9 ± 1.02 | 53.8 ± 1.87 | 17.7 ± 0.61 |  | 

Second part, led by results:

Row | melting point [°C] | IC50 [1, 4] [µM] | IC50 ([1]; Mus musculus, RAW264.7, read-out: NO (IC50)) [µM] | Compound | inhibition at 1 µM [1, 3] [%] | inhibition at 5 µM [1, 3] [%] | inhibition at 10 µM [1, 3] [%] | IC50 [2] [µM] | Nitric Oxide % Inhibition ([1]; 10 µM, LPS-induced RAW 264.7 macrophages) [%] | inhibition at 40 µM ([1]; Mus musculus, RAW264.7, read-out: Nitric Oxide % Inhibition) [%]
14 | 132 to 134 | 10.1 ± 0.63 |  | COc1cccc(-c2nn(-c3ccccc3)cc2-c2ccnc(NCCNS(=O)(=O)c3ccc(Cl)cc3)c2)c1 [Compound 1c, 4-Chloro-N-(2-((4-(3-(3-methoxyphenyl)-1-phenyl-1H-pyrazol-4-yl)pyridin-2-yl)amino)ethyl)benzenesulfonamide] | 13.27 ± 0.08 | 24.76 ± 0.17 | 49.9 ± 1.25 | 219.39 ± 0.14 |  | 
15 | 92 to 94 | 12.4 ± 0.4 |  | COc1cccc(-c2nn(-c3ccccc3)cc2-c2ccnc(NCCCNS(=O)(=O)c3ccc(F)cc3)c2)c1 [Compound 2d, 4-Fluoro-N-(3-((4-(3-(3-methoxyphenyl)-1-phenyl-1H-pyrazol-4-yl)pyridin-2-yl)amino)propyl)benzenesulfonamide] | 7.81 ± 0.03 | 23 ± 0.89 | 55 ± 4.01 | 260.3 ± 2.24 |  | 
16 | 117 to 119 | 9.5 ± 0.34 |  | COc1cccc(-c2nn(-c3ccccc3)cc2-c2ccnc(NCCCNS(=O)(=O)c3ccc(Br)cc3)c2)c1 [Compound 2b, 4-Bromo-N-(3-((4-(3-(3-methoxyphenyl)-1-phenyl-1H-pyrazol-4-yl)pyridin-2-yl)amino)propyl)benzenesulfonamide] | 0.01 ± 0.03 | 28.1 ± 0.66 | 52.4 ± 1.62 | 384.7 ± 1.29 |  | 
17 | 144 to 146 | 13.4 ± 0.72 |  | COc1ccc(S(=O)(=O)NCCNc2cc(-c3cn(-c4ccccc4)nc3-c3cccc(OC)c3)ccn2)cc1 [Compound 1e, 4-Methoxy-N-(2-((4-(3-(3-methoxyphenyl)-1-phenyl-1H-pyrazol-4-yl)pyridin-2-yl)amino)ethyl)benzenesulfonamide] | 13.52 ± 0.11 | 16.1 ± 0.09 | 41.5 ± 0.99 | 285 ± 4.18 |  | 
18 |  | 10.5 ± 0.44 |  | COc1cccc(-c2nn(-c3ccccc3)cc2-c2ccnc(NCCCNS(=O)(=O)c3ccc(C(F)(F)F)cc3)c2)c1 [Compound 2g, N-(3-((4-(3-(3-Methoxyphenyl)-1-phenyl-1H-pyrazol-4-yl)pyridin-2-yl)amino)propyl)-4-(trifluoromethyl)benzenesulfonamide] | 2.91 ± 0.02 | 26.3 ± 1.01 | 56 ± 0.89 | 252.6 ± 1.87 |  | 
19 | 106 to 108 | 10.7 ± 0.52 |  | O=S(=O)(NCCNc1cc(-c2cn(-c3ccccc3)nc2-c2cccc(O)c2)ccn1)c1ccc(F)cc1 [Compound 3d, 4-Fluoro-N-(2-((4-(3-(3-hydroxyphenyl)-1-phenyl-1H-pyrazol-4-yl)pyridin-2-yl)amino)ethyl)benzenesulfonamide] | 10.58 ± 0.09 | 18.3 ± 0.26 | 48.2 ± 0.74 | 26.6 ± 0.47 |  | 
20 |  | 9.19 ± 0.25 |  | COc1cccc(-c2nn(-c3ccccc3)cc2-c2ccnc(NCCCNS(=O)(=O)c3cccc(F)c3)c2)c1 [Compound 2h, 3-Fluoro-N-(3-((4-(3-(3-methoxyphenyl)-1-phenyl-1H-pyrazol-4-yl)pyridin-2-yl)amino)propyl)benzenesulfonamide] | 4.87 ± 0.05 | 24.1 ± 0.91 | 41.5 ± 1.12 | 246 ± 2.71 |  | 
21 |  | 11.3 ± 0.16 |  | O=S(=O)(NCCCNc1cc(-c2cn(-c3ccccc3)nc2-c2cccc(O)c2)ccn1)c1ccc(F)cc1 [Compound 4d, 4-Fluoro-N-(3-((4-(3-(3-hydroxyphenyl)-1-phenyl-1H-pyrazol-4-yl)pyridin-2-yl)amino)propyl)benzenesulfonamide] | 9.02 ± 0.03 | 20.8 ± 0.36 | 48.5 ± 1.79 | 12.6 ± 0.22 |  | 
